The values that follow come from patent US10821115B2, “Compounds that inhibit Mcl-1 protein” (priority 2017, dated 2020).

Where two headings read alike, the source gives them in different places.

In assay [1] the target is recombinant human Mcl-1 (residues 171-327) / Bim interaction (Homo sapiens (Human), UniProt Q07820). Description: biochemical. It is filed as binding. Conditions: read-out: Mcl-1 HTRF IC50.
The test system of assay [2] is human multiple myeloma cell line, OPM-2. The assay can be described thus: Cell viability assay (OPM-2 10 FBS), CellTiter-Glo. It is filed as cell-based. The gist of the method: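 Serially diluted test compounds are incubated 16 h with cells (3000/well) in RPMI 1640 supplemented with 10% FBS. Viability is then measured by luminescence and IC50 calculated by 4-parameter logistic fit.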

Setting [3] is: TR-FRET, Mcl-1(171-327) / biotin-Bim (51-76).
[4] abbreviates: Homo sapiens, OPM-2, 16 h, read-out: OPM-2 10% FBS IC50 IP, OPM-2 cells, 10% FBS, 16 h, CellTiter-Glo.
The mark [5] stands for this setting: 0.1 nM Mcl-1(171-327), 0.05 nM biotin-Bim (51-76).
The mark [6] stands for this setting: Homo sapiens, OPM-2, 16 h, read-out: OPM-2 10% FBS IC50 IP, OPM-2 cells, 10% FBS, 16 h incubation.
Setting [7] is: read-out: OPM-2 10% FBS IC50 IP, OPM-2 cells, 10% FBS, 16 h incubation.

Chain of recombinant human Mcl-1 (residues 171-327) / Bim interaction (Q07820 171-327): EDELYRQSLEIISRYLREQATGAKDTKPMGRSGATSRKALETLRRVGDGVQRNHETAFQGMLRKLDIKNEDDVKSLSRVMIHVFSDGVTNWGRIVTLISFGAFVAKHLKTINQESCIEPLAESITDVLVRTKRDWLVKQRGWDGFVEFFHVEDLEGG

Consider `CO[C@]1(c2cnc(Cl)n2C)/C=C/C[C@H](C)[C@@H](C)S(=O)(=O)NC(=O)c2ccc3c(c2)N(C[C@@H]2CC[C@H]21)C[C@@]1(CCCc2cc(Cl)ccc21)CO3` (single isomer, unassigned) [Example 100539], for which the IC50 in assay [1] (setting [3]) was 0.144 nM; in assay [2] (setting [4]) it was 727 nM.

Turning to `C[C@@H]1[C@@H](C)C/C=C/[C@@](O)(c2nccn2C)[C@@H]2CC[C@H]2CN2C[C@@]3(CCCc4cc(Cl)ccc43)COc3ccc(cc32)C(=O)NS1(=O)=O` [Example 100199, (1S,3′R,6′R,7′S,8′E,11′S,12′R)-6-chloro-7′-hydroxy-11′,12′-dimethyl-7′-(1-methyl-1H-imidazol-2-yl)-3,4-dihydro-2H,15′H-spiro[naphthalene-1,22′-[20]oxa[13]thia[1,14]diazatetracyclo [14.7.2.0~3,6~.0~19,24~]pentacosa[8,16,18,24]tetraen]-15′-one 13′,13′-dioxide], the results for the IC50 in assay [1] (setting [3]) and in assay [2] (setting [4]) were 0.166 nM and 148 nM, respectively.

As for `CO[C@@]1(CC(=O)c2ccccn2)/C=C/C[C@H](C)[C@@H](C)S(=O)(=O)NC(=O)c2ccc3c(c2)N(C[C@@H]2CC[C@H]21)C[C@@]1(CCCc2cc(Cl)ccc21)CO3` [Example 100491, (1S,3′R,6′R,7′S,8′E,11′S,12′R)-6-chloro-7′-methoxy-11′,12′-dimethyl-7′-(2-oxo-2-(2-pyridinyl)ethyl)-3,4-dihydro-2H,15′H-spiro[naphthalene-1,22′-[20]oxa[13]thia[1,14]diazatetracyclo [14.7.2.0~3,6~.0~19,24~]pentacosa[8,16,18,24]tetraen]-15′-one 13′,13′-dioxide], the IC50 in assay [1] (setting [3]) was found to be 0.208 nM; in assay [2] (setting [4]), 308 nM.

Take `CO[C@@]1(CN2CCN(CCO)CC2)/C=C/C[C@H](C)[C@@H](C)S(=O)(=O)NC(=O)c2ccc3c(c2)N(C[C@@H]2CC[C@H]21)C[C@@]1(CCCc2cc(Cl)ccc21)CO3` [Example 300, (1S,3′R,6′R,7′S,8′E,11′S,12′R)-6-chloro-7′-((4-(2-hydroxyethyl)-1-piperazinyl)methyl)-7′-methoxy-11′,12′-dimethyl-3,4-dihydro-2H,15′H-spiro[naphthalene-1,22′-[20]oxa[13]thia[1,14]diazatetracyclo [14.7.2.0~3,6~.0~19,24~]pentacosa[8,16,18,24]tetraen]-15′-one 13′,13′-dioxide]: the 50% inhibitory concentration (IC50) in assay [1] (setting [5]) came to 0.165 nM; in assay [2] (setting [6]) it was 284 nM.

“(1S,3′R,6′R,7′R,8′E, 11′S,12′R)-6-chloro-12′-(2-hydroxyethyl)-7′-methoxy-11′-methyl-7′-((9aR)-octahydro-2H-pyrido[1,2-a]pyrazin-2-ylmethyl)-3,4-dihydro-2H, 15′H-spiro[naphthalene-1,22′-[20]oxa[13]thia[1,14]diazatetracyclo[14.7.2.0-3,6˜.0˜19,24˜]pentacosa[8,16,18,24]tetraen]-15′-one 13′,13′-dioxide [Example 358]”: the IC50 was found to be 0.066 nM in assay [1] (setting [5]) and 144 nM in assay [2] (setting [7]).

In the case of `Cc1ncoc1C[C@]1(O)/C=C/C[C@H](C)[C@@H](C)S(=O)(=O)NC(=O)c2ccc3c(c2)N(C[C@@H]2CC[C@H]21)C[C@@]1(CCCc2cc(Cl)ccc21)CO3` [Example 100572, (1S,3′R,6′R,7′S,8′E,11′S,12′R)-6-chloro-7′-hydroxy-11′,12′-dimethyl-7′-((4-methyl-1,3-oxazol-5-yl)methyl)-3,4-dihydro-2H,15′H-spiro[naphthalene-1,22′-[20]oxa[13]thia[1,14]diazatetracyclo [14.7.2.0~3,6~.0~19,24~]pentacosa[8,16,18,24]tetraen]-15′-one 13′,13′-dioxide], the concentration for half-maximal inhibition (IC50) in assay [1] (setting [3]) was found to be 0.174 nM; in assay [2] (setting [4]), 1160 nM.

Take `CC[C@@H]1CC/C=C/[C@](CN2CCN3CCCC[C@@H]3C2)(OC)[C@@H]2CC[C@H]2CN2C[C@@]3(CCCc4cc(Cl)ccc43)COc3ccc(cc32)C(=O)NS1(=O)=O` [Example 29, (1S,3′R,6′R,7′S,8′E,12′R)-6-chloro-12′-ethyl-7′-methoxy-7′-((9aR)-octahydro-2H-pyrido[1,2-a]pyrazin-2-ylmethyl)-3,4-dihydro-2H,15′H-spiro[naphthalene-1,22′-[20]oxa[13]thia[1,14]diazatetracyclo [14.7.2.0~3,6~.0~19,24~]pentacosa[8,16,18,24]tetraen]-15′-one 13′,13′-dioxide]: the IC50 in assay [1] (setting [5]) turned out to be 0.249 nM; in assay [2] (setting [6]) it was 186 nM.

Regarding `C[C@@H]1[C@@H](C)CCC[C@@](C=O)(CN2CCOCC2)[C@@H]2CC[C@H]2CN2C[C@@]3(CCCc4cc(Cl)ccc43)COc3ccc(cc32)C(=O)NS1(=O)=O` [Example 100336, (1S,3′R,6′R,7′S,11′S,12′R)-6-chloro-11′,12′-dimethyl-7′-(4-morpholinylmethyl)-15′-oxo-3,4-dihydro-2H-spiro[naphthalene-1,22′-[20]oxa[13]thia[1,14]diazatetracyclo [14.7.2.0~3,6~.0~19,24~]pentacosa[16,18,24]triene]-7′-carbaldehyde 13′,13′-dioxide], the concentration for half-maximal inhibition (IC50) in assay [1] is 1.12 nM; in assay [2] (setting [4]), 1810 nM.

Consider `CC(C)CO[C@]1(CN2CCN(C3COC3)CC2)/C=C/C[C@H](C)[C@@H](C)S(=O)(=O)NC(=O)c2ccc3c(c2)N(C[C@@H]2CC[C@H]21)C[C@@]1(CCCc2cc(Cl)ccc21)CO3` [Example 355], for which the values for the IC50 in assay [1] (setting [5]) and in assay [2] (setting [6]) were 0.172 nM and 272 nM, respectively.

`C[C@@H]1[C@@H](C)C/C=C/[C@@](O)(C(F)F)[C@@H]2CC[C@H]2CN2C[C@@]3(CCCc4cc(Cl)ccc43)COc3ccc(cc32)C(=O)NS1(=O)=O` [Example 100070, (1S,3′R,6′R,7′S,8′E,11′S,12′R)-6-chloro-7′-(difluoromethyl)-7′-hydroxy-11′,12′-dimethyl-3,4-dihydro-2H,15′H-spiro[naphthalene-1,22′-[20]oxa[13]thia[1,14]diazatetracyclo [14.7.2.0~3,6~.0~19,24~]pentacosa[8,16,18,24]tetraen]-15′-one 13′,13′-dioxide]: the concentration for half-maximal inhibition (IC50) was found to be 4.85 nM in assay [1] (setting [3]) and 1070 nM in assay [2] (read-out: OPM-2 10% FBS IC50 IP, OPM-2 cells, 10% FBS, 16 h, CellTiter-Glo).

As for “(1S,3′R,6′R,7′S,8′E, 11′S,12′R)-6-chloro-12′-(2-chloroethyl)-7′-((9aS)-hexahydropyrazino[2,1-c][1,4]oxazin-8(1H)-ylmethyl)-7′-methoxy-11′-methyl-3,4-dihydro-2H,15′H-spiro[naphthalene-1,22′-[20]oxa[13]thia[1,14]diazatetracyclo[14.7.2.0-3,6˜.0˜19,24˜]pentacosa[8,16,18,24]tetraen]-15′-one 13′,13′-dioxide [Example 366]”, the IC50 in assay [1] (setting [5]) turned out to be 0.248 nM; in assay [2] (setting [7]), 133 nM.

For the compound `C[C@@H]1[C@@H](C)CCC[C@](CO)(NC(=O)c2ccccc2)[C@@H]2CC[C@H]2CN2C[C@@]3(CCCc4cc(Cl)ccc43)COc3ccc(cc32)C(=O)NS1(=O)=O` [Example 100256, N-((1S,3′R,6′R,7′S,11′S,12′R)-6-chloro-7′-(hydroxymethyl)-11′,12′-dimethyl-13′,13′-dioxido-15′-oxo-3,4-dihydro-2H-spiro[naphthalene-1,22′-[20]oxa[13]thia[1,14]diazatetracyclo [14.7.2.0~3,6~.0~19,24~]pentacosa[16,18,24]trien]-7′-yl)benzamide], the concentration for half-maximal inhibition (IC50) in assay [1] (setting [3]) came to 5.04 nM; in assay [2] (setting [4]), 1200 nM.

Turning to `CO[C@]1(C)/C=C/C[C@H](C)[C@@H](C)S(=O)(=O)NC(=O)c2ccc3c(c2)N(C[C@@H]2CC[C@H]21)C[C@@]1(CCCc2cc(Cl)ccc21)CO3` [Example 100215, (1S,3′R,6′R,7′R,8′E,11′S,12′R)-6-chloro-7′-methoxy-7′,11′,12′-trimethyl-3,4-dihydro-2H,15′H-spiro[naphthalene-1,22′-[20]oxa[13]thia[1,14]diazatetracyclo [14.7.2.0~3,6~.0~19,24~]pentacosa[8,16,18,24]tetraen]-15′-one 13′,13′-dioxide], the IC50 in assay [1] worked out at 0.595 nM; in assay [2] (setting [4]), 1250 nM.

In the case of `C[C@@H]1[C@@H](C)CCC[C@](O)(CO)[C@@H]2CC[C@H]2CN2C[C@@]3(CCCc4cc(Cl)ccc43)COc3ccc(cc32)C(=O)NS1(=O)=O` (single isomer, unassigned) [Example 100052], the half-maximal inhibitory concentration (IC50) in assay [1] (setting [3]) was determined as 0.191 nM; in assay [2] (setting [4]) it was 424 nM.

For `COCCC[C@]1(O)/C=C/C[C@H](C)[C@@H](C)S(=O)(=O)NC(=O)c2ccc3c(c2)N(C[C@@H]2CC[C@H]21)C[C@@]1(CCCc2cc(Cl)ccc21)CO3` [Example 100160, (1S,3′R,6′R,7′S,8′E,11′S,12′R)-6-chloro-7′-hydroxy-7′-(3-methoxypropyl)-11′,12′-dimethyl-3,4-dihydro-2H,15′H-spiro[naphthalene-1,22′-[20]oxa[13]thia[1,14]diazatetracyclo [14.7.2.0~3,6~.0~19,24~]pentacosa[8,16,18,24]tetraen]-15′-one 13′,13′-dioxide], the half-inhibitory concentration (IC50) is 0.169 nM in assay [1] (setting [3]) and 78 nM in assay [2] (setting [4]).

In the case of `CO[C@@]1(CN(C)C)/C=C/C[C@H](C)[C@@H](C)S(=O)(=O)NC(=O)c2ccc3c(c2)N(C[C@@H]2CC[C@H]21)C[C@@]1(CCCc2cc(Cl)ccc21)CO3` [Example 66, (1S,3′R,6′R,7′S,8′E,11′S,12′R)-6-chloro-7′-((dimethylamino)methyl)-7′-methoxy-11′,12′-dimethyl-3,4-dihydro-2H,15′H-spiro[naphthalene-1,22′-[20]oxa[13]thia[1,14]diazatetracyclo [14.7.2.0~3,6~.0~19,24~]pentacosa[8,16,18,24]tetraen]-15′-one 13′,13′-dioxide], the IC50 was determined as 0.246 nM in assay [1] (setting [5]) and 318 nM in assay [2] (setting [6]).
